Laboratory results: patent publication US20240124409A1, “GUAIANOLIDE SESQUITERPENE LACTONE DERIVATIVES AND PHARMACEUTICAL USE THEREOF” (NANJING UNIVERSITY OF CHINESE MEDICINE, priority 2021, published 2024)

Columns and labels:
[1] = Conversion of Compound 23 to Compound 1 in HEPES7.4 solution; type: physicochemical; details: HEPES buffer solution, 37° C.
Protocol: Formulation of HEPES 7.4 solution: 1.6 g of NaCl, 0.074 g of KCl, 0.027 g of Na2HPO4, 0.2 g of glucose and 1 g of a 4-hydroxyethyl piperazine ethanesulfonic acid (HEPES) solution were placed in 90 mL of distilled water, the pH of which was adjusted to 7.4 with 0.5 M NaOH, and then the volume was adjusted to 100 mL with distilled water.
250 μL of the mouse serum or the HEPES7.4 solution was added into the sample, incubated at 37° C., and sampled at different time points, respectively. 20 μL of samples were taken into EP tubes, into which was added 60 μL of methanol, vortexed to mix well, and centrifuged at 12000 rpm at 4° C. for 10 min. The supernatants were taken at 1 h, 2 h, 4 h, 8 h and 12 h, respectively. The samples were analyzed by HPLC with an injection volume of 10 μL, and the corresponding peak areas were recorded. The chromatographic conditions were as follows: the chromatographic column was Hanbang C18 (4.6×250 mm, 5 um); the mobile phase was acetonitrile: […] of ammonium formate solution =60: 40; the flow rate was 1.0 mL/min; the detection wavelength was 210 nm; and the column temperature was 30° C.

[2] = Safety investigation of Compound 23, 30 days in mice; type: in vivo, C57BL/6 mice; details: for body weight: in % (unit assumed)
NLRP3 inflammasome = details: read-out: inhibitory activity against the NLRP3 inflammasome activation, EC50; cited from earlier work

In the case of `CN(C)C[C@@H]1C(=O)O[C@H]2[C@H]1CC[C@@]1(C)C[C@]13CC[C@@](C)(O)[C@H]23` [Compound 23], the “content of Compound 1 (converted from Compound 23)” value (“content” for short) ([1]; 1 h) is reported as 5.36%, the “content” value ([1]; 2 h) is reported as 11.05% and the “content” value ([1]; 4 h) is reported as 19.64%. The “content” value ([1]; 8 h) was 39.29%, the “content” value ([1]; 12 h) was 55.36% and the “activities of the mice after each administration” value ([2]; 500 and 1000 mg/kg) was “relatively reduced”. For the same compound, the “time to return to normal after administration” value ([2]; 500 and 1000 mg/kg) was 1 to 2 h, the “mortality” value ([2]; 500 and 1000 mg/kg, 30 days) was “none of the mice die” and the “effect on body weights” value ([2]; 500 and 1000 mg/kg, female and male mice) was “no obvious effect on the body weights”. The body weight ([2]; female, 500 mg/kg i.g. daily, Day 1) was 100.00 ± 0.00, the body weight ([2]; female, 500 mg/kg i.g. daily, Day 5) was 100.41 ± 0.43 and the body weight ([2]; female, 500 mg/kg i.g. daily, Day 10) was 99.01 ± 1.34. The body weight ([2]; female, 500 mg/kg i.g. daily, Day 15) was 100.03 ± 0.95, the body weight ([2]; female, 500 mg/kg i.g. daily, Day 20) was 100.52 ± 0.74 and the body weight ([2]; female, 500 mg/kg i.g. daily, Day 25) was 99.81 ± 1.72. For the same compound, the body weight ([2]; female, 500 mg/kg i.g. daily, Day 30) was 99.79 ± 2.55, the body weight ([2]; female, 1000 mg/kg i.g. daily, Day 1) was 100.00 ± 0.00 and the body weight ([2]; female, 1000 mg/kg i.g. daily, Day 5) was 101.96 ± 0.55. The body weight ([2]; female, 1000 mg/kg i.g. daily, Day 10) was 101.80 ± 2.02, the body weight ([2]; female, 1000 mg/kg i.g. daily, Day 15) was 99.77 ± 2.60 and the body weight ([2]; female, 1000 mg/kg i.g. daily, Day 20) was 101.04 ± 2.13. For the same compound, the body weight ([2]; female, 1000 mg/kg i.g. daily, Day 25) was 99.06 ± 3.56, the body weight ([2]; female, 1000 mg/kg i.g. daily, Day 30) was 100.67 ± 0.91 and the body weight ([2]; male, 500 mg/kg i.g. daily, Day 1) was 100.00 ± 0.00. For the same compound, the body weight ([2]; male, 500 mg/kg i.g. daily, Day 5) was 100.31 ± 0.89, the body weight ([2]; male, 500 mg/kg i.g. daily, Day 10) was 101.51 ± 4.00 and the body weight ([2]; male, 500 mg/kg i.g. daily, Day 15) was 99.27 ± 2.11. The body weight ([2]; male, 500 mg/kg i.g. daily, Day 20) was 101.29 ± 0.40, the body weight ([2]; male, 500 mg/kg i.g. daily, Day 25) was 98.93 ± 0.60 and the body weight ([2]; male, 500 mg/kg i.g. daily, Day 30) was 100.10 ± 1.08. The body weight ([2]; male, 1000 mg/kg i.g. daily, Day 1) was 100.00 ± 0.00, the body weight ([2]; male, 1000 mg/kg i.g. daily, Day 5) was 101.48 ± 1.30 and the body weight ([2]; male, 1000 mg/kg i.g. daily, Day 10) was 101.22 ± 0.84. For the same compound, the body weight ([2]; male, 1000 mg/kg i.g. daily, Day 15) was 100.47 ± 1.28, the body weight ([2]; male, 1000 mg/kg i.g. daily, Day 20) was 100.15 ± 2.76 and the body weight ([2]; male, 1000 mg/kg i.g. daily, Day 25) was 98.35 ± 1.14. The body weight ([2]; male, 1000 mg/kg i.g. daily, Day 30) was 100.71 ± 0.53.
In the case of `C=C1C(=O)O[C@@H]2[C@H]3C(C)=CC[C@@]34O[C@@]4(C)CC[C@@H]12` [arglabin, reference compound], the EC50 (NLRP3 inflammasome) is listed as 10 nM.
